In EP3666770A1, “NOVEL HETEROCYCLIC COMPOUNDS AS CDK8/19 INHIBITORS” (Joint Stock Company "Biocad", priority 2017, dated 2019):

What was measured:
[1] = Chemical stability in simulated gastric fluid (SGF); assay type: physicochemical; conditions: SGF without enzymes, pH=1,4; 10 µm; 2 hours at 37°C; substance amount in % after thermostatting
Procedure, shortened: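 Compounds at […] (diluted from DMSO stock) were incubated for 2 h at 37 °C in enzyme-free simulated gastric fluid, pH=1,4. HPLC peak areas before and after incubation gave the % of compound remaining.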

[2] = Permeability through Caco-2 cell monolayer; assay type: in vitro ADME; conditions: human, Caco-2; for Papp A→B at 2 h, 10 µM: A->B transfer, pH 6.5 -> pH 7.4, 2 hours at 37 °C; for efflux ratio at 2 h, 10 µM: efflux = Papp B-A / Papp A-B
Protocol: Estimation of permeability through Caco-2 cell monolayer enables assessment of the ability of the substances to penetrate through biological membranes by means of both active and passive transport.
Intestinal epithelial cells Caco-2 were grown on filter inserts (pore size 0.4 µm, BD Falcon with High Density) for 21 days; monolayer integrity was then checked using Lucifer Yellow (Sigma-Aldrich, USA) according to the standard protocol. In A->B transfer ("intestinal lumen" - "blood stream" transfer), solutions of the test substances in buffer, pH 6.5 (HBSS, 10 mM HEPES, 15 mM glucose) at a concentration of 10 µM were added to the upper chamber; whereas the lower chamber was filled with buffer, pH 7.4 (HBSS, 10 mM HEPES, 15 mM Glucose, 1% BSA). In B->A transfer ("blood stream" - "intestinal lumen" transfer), the upper chamber was filled with buffer, pH 6.5, whereas the solutions of the test substances in buffer, pH 7.4, at a concentration of 10 µM were added to the lower chamber. A highly permeable substance propranolol was used as a control.
After 2 hours incubation at 37 ° C under an atmosphere containing 5% CO2, the amounts of the test substances in the upper and lower chambers were measured by HPLC using an Agilent1200 HPLC system (Agilent, USA), proteins were preliminarily precipitated with acetonitrile. Chromatographic analysis was performed in a gradient elution regime with a flow rate of 1 mL/min. The peak areas corresponding to the compounds were detected on chromatograms.
The value was calculated using the formula: efflux = Papp B−A /Papp A−B , [formula] where • Papp A-E - the value of permeability direct analysis A→ B; • Papp B-A - the value of the permeability of the reverse analysis B→ A.

[3] = system: KG-1; assay: Cell-based antiproliferative test (AlamarBlue), KG-1; conditions: Homo sapiens, KG-1; 120 h incubation; average values of several tests; read-out: KG-1 IC50, mkM
Protocol: (§1) Antiproliferative activity of CDK8 inhibitors according to the present invention was measured in a cell-based test on continuous cell cultures MV4-11 (biphenotypic myelomonocytic leukemia, ATCC® CRL-9591™), KG-1 (acute myeloid leukemia, ATCC® CCL-246™), HL-60 (acute promyelocytic leukemia, ATCC® CCL-240™) using a vital stain AlamarBlue (ThermoFisher, #DAL1100). The cells were grown in RPMI-1640 (PanEco, #C330p) medium with addition of 10% FBS (Gibco, #16140-071); washed and resuspended in culture medium with 10% FBS (Gibco, #16140-071) in 96-well culture plates (Corning, #3599) with ≈ 10 ×10^3 cells in […] of medium per well. The compounds in question were dissolved in DMSO and diluted with a medium with 10% FBS (Gibco, #16140-071) to a final concentration ranging form 0 to 100 µM. […] of diluted compounds were then added to each well (final DMSO concentration was less than 1%) and incubated under 5% CO2 atmosphere at 37°C for 120 h. After incubating, 15 µL of AlamarBlue (ThermoFisher, #DAL1100) reagent was added per well, contents of plates were mixed in an orbital shaker (Biosan, Latvia) and further incubated for 3-5 h at 37°C under 5% CO2 atmosphere. Number of living cells was estimated using a microplate spectrophotometer (Tecan Infinite M200Pro, Switzerland) measuring fluorescent signal at the excitation wavelength (λEx) of 540 nm and emission wavelength (λEm) of 590 nm.
(§2) IC50 was calculated using Magellan 7.2 software (Tecan, Switzerland) approximating experimental points by four-parameter logistic model with the optimization by Levenberg-Marquardt (table 7, table 7).

[4] = system: MV4-11; assay: Cell-based antiproliferative test (AlamarBlue), MV4-11; conditions: Homo sapiens, MV4-11, 120 h, 120 h incubation; average values of several tests; read-out: MV-4-11 IC50, mkM
[5] = Chemical stability in human blood plasma; assay type: in vitro ADME; conditions: pooled human blood plasma; 10 µM; 4 hours at 37°C; substance amount in % after thermostatting
Procedure, shortened: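 Pooled plasma from ten healthy human donors; compound diluted from 10 mM DMSO stock to 10 µm final and incubated 4 h at 37°C. After acetonitrile protein precipitation, HPLC peak areas before and after incubation were compared; value is % compound remaining.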

[6] = General cytotoxicity test on HepG2 cells; assay type: cell-based; conditions: human, HepG2 cells; 72 h incubation; 200 to 0.78 µM; average values of several tests; read-out: Hep-G2 CC50, mkM
Protocol: Cell viability was assessed using the above method. Table 6. […] The results are presented as average values of activity obtained in several tests.

[7] = system: HL-60; assay: Cell-based antiproliferative test (AlamarBlue), HL-60; conditions: Homo sapiens, HL-60, 120 h, 120 h incubation; average values of several tests; read-out: HL-60 IC50, mkM
Protocol: as §1, §2

[8] = Enzyme stability in human liver microsomes; assay type: in vitro ADME; conditions: pH 7.4; 0,5 mg/mL pooled human liver microsomes; 10 µM compound; 37°C; pH=7,4
Procedure, shortened: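 Pooled human liver microsomes (0,5 mg/mL) incubated at 37 °C with 10 µM compound, 2 mM β-NAD and 4 mM MgCl2 in 0,1 M sodium phosphate, pH 7,4. Samples quenched with acetonitrile and analysed by HPLC. Elimination rate constant taken from the slope of log peak area versus time, giving t1/2 and CLint.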

SMILES	Stability in SGF, % [1] [%]	Papp A→B at 2 h, 10 µM [2] [×10⁻⁶ cm/s]	efflux ratio at 2 h, 10 µM [2]	IC50 [3] [µM]	IC50 [4] [µM]	Stability in blood plasma, % [5] [%]	CC50 at 72 h [6] [µM]	IC50 [7] [µM]	microsomal CLint at 10 µM [8] [µL/min/mg]
O=C(c1cccnc1)c1c[nH]c2ncc(-c3ccc(N4CCOCC4)cc3)cc12 [CDK8-4-37, (5-(4-Morpholinophenyl)-1H-pyrrolo[2,3-b]pyridin-3-yl) (pyridin-3-yl)methanone]	100	8.63	1.08	5	0.13	100	118	–	–
COC1CN(C(=O)c2cnc3cncc(-c4ccc(-c5cnn(C)c5)cc4)c3c2)C1 [CDK8-3-15, (3-Methoxyazetidin-1-yl)(5-(4-(1-methyl-1H-pyrazol-4-yl)phenyl)-1,7-naphthyridin-3-yl) methanone]	99.3	–	–	1.13	2.45	75.1	> 100	> 60	15.2
NC(=O)c1ccc(-n2cnc3ccc(N4CC(C(=O)Nc5ccccc5)C4)cc32)cc1 [CDK8-1-6, 1-(1-(4-Carbamoylphenyl)-1H-benzo[d]imidazol-6-yl)-N-phenylazetidine-3-carboxamide]	98.9	–	–	> 10	1.64	100	> 100	8.18	23.4
O=C(c1ccc2ncn(-c3ccc(-c4cn[nH]c4)cc3)c2c1)N1CCC1 [CDK8-1-5, (1-(4-(1H-Pyrazol-4-yl)phenyl)-1H-benzo[d]imidazol-6-yl)(azetidin-1-yl) methanone]	99.5	–	–	4.71	1.24	98.1	81.1	> 60	–
COc1cccc(C(=O)c2c[nH]c3ncc(-c4ccc(N(C)C)cc4)cc23)c1 [CDK8-4-34, (5-(4-(Dimethylamino)phenyl)-1H-pyrrolo[2,3-b]pyridin-3-yl) (3-methoxyphenyl) methanone]	99.5	–	–	0.2	0.14	100	2.6	0.081	24.2
Cn1cc(-c2ccc(-n3cnc4ccc(C(=O)N5CCC5)cc43)cc2)cn1 [CDK8-1-18, Azetidin-1-yl(1-(4-(1-methyl-1H-pyrazol-4-yl)phenyl)-1H-benzo[d]imidazol-6-yl) methanone]	100	–	–	2.13	4.8	100	> 100	> 100	14.6
Cn1cc(-c2ccc(-c3cncc4ncc(C(=O)N5CCCC5)cc34)cc2)cn1 [CDK8-3-16, (5-(4-(1-Methyl-1H-pyrazol-4-yl)phenyl)-1,7-naphthyridin-3 - yl)(pyrrolidin-1-yl) methanone]	100	–	–	0.94	2.87	100	> 100	> 60	27.8
CN(C)c1ccc(-c2cnc3[nH]cc(C(=O)c4cccnc4)c3c2)cc1 [CDK8-4-39, (5-(4-(Dimethylamino)phenyl)-1H-pyrrolo[2,3-b]pyridin-3-yl) (pyridin-3-yl)methanone]	100	–	–	27.7	0.19	100	> 100	–	23.6
O=C(c1ccncc1)c1c[nH]c2ncc(-c3ccc(N4CCOCC4)cc3)cc12 [CDK8-4-38, (5-(4-Morpholinophenyl)-1H-pyrrolo[2,3-b]pyridin-3-yl) (pyridin-4-yl)methanone]	100	13.9	0.28	60	0.39	100	> 100	–	20
Cn1cc(-c2ccc(-c3cncc4ncc(N5CCCC5=O)cc34)cc2)cn1 [CDK8-3-17, 1-(5-(4-(1-Methyl-1H-pyrazol-4-yl)phenyl)-1,7-naphthyridin-3-yl)pyrrolidin-2-one]	100	–	–	3.93	8.85	100	> 20	46.5	10.7
Cn1cc(-c2ccc(-c3ccc4nccc(C(=O)N5CCCCC5)c4c3)cc2)cn1 [CDK8-5-8, (6-(4-(1-Methyl-1H-pyrazol-4-yl)phenyl)quinolin-4-yl) (piperidin-1-yl)methanone]	100	–	–	17.5	3.73	98.2	> 50	24.8	–
CN(C)c1ccc(-c2cnc3[nH]cc(C(=O)c4ccncc4)c3c2)cc1 [CDK8-4-40, (5-(4-(Dimethylamino)phenyl)-1H-pyrrolo[2,3-b]pyridin-3-yl) (pyridin-4-yl) methanone]	100	–	–	25	5.56	100	> 100	–	35
